Target: α7 nAChR subtype (Rattus norvegicus, UniProt Q05941)
Type: binding
Settings: read-out: KD of radioligand (saturation curves, one site model)

Sequence of α7 nAChR subtype (Q05941 23-502 limits assumed): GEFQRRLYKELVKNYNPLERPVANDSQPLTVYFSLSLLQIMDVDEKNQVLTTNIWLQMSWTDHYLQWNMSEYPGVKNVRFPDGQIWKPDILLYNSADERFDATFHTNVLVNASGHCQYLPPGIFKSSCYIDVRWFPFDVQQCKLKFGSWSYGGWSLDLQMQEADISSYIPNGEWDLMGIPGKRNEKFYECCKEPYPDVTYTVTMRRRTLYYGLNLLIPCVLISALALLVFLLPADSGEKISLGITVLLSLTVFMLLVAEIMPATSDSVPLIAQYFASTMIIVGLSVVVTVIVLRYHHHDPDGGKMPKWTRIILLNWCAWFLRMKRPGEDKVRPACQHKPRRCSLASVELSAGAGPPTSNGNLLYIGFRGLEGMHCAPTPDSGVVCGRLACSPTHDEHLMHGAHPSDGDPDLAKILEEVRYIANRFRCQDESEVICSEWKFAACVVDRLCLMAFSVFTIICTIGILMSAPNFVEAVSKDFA

## 125I-α-Bungarotoxin [Example 125I-α-BTX]
  Kd: 1.67 nM

Source: patent publication US7214688B2 (priority 2000, dated 2007)
